Some test systems named below: XF 498 CNS; DMS 273 small cell lung; LXFL 529 NSCLC; DMS 114 small cell lung; SNB-78 CNS; DLD-1 colon; M19-MEL melanoma; MDA-MB-231 breast; DU-145 prostate; BT-549 breast; MDA-MB-435.
Experiment in all cases: DTP human tumour cell line panel, 48 h

Molecules are shown by their SMILES.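 All cell lines were grown in 96-well plates and treated with compound for 48 hours. Definition used: TGI = concentration required for complete inhibition of growth.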

The values that follow come from PubChem BioAssay (NCI).

What is called TGI is the concentration giving total growth inhibition. Read a low TGI as greater sensitivity of the cells.

Consider `S=c1o[nH]c(-c2ccccc2)c1C=Nc1ccccc1`, for which the TGI with XF 498 CNS, in the assay with DMS 273 small cell lung, in the assay with LXFL 529 NSCLC, in the assay with DMS 114 small cell lung, with SNB-78 CNS and with DLD-1 colon was greater than 100 µM throughout.
Consider `C/C(=N\NC(=O)C[N+](C)(C)C)c1sc(-c2cccnc2)nc1C`, for which the TGI with XF 498 CNS, with DMS 273 small cell lung, in the assay on LXFL 529 NSCLC, in the assay on DMS 114 small cell lung, with M19-MEL melanoma and in the assay on SNB-78 CNS was greater than 100 µM in each case. Also, the TGI with DLD-1 colon was greater than 100 µM.
Turning to `Cc1cccc(C)c1NC(=O)CCc1nnc2s/c(=C\c3ccc(N(C)C)cc3)c(=O)n12`, the TGI with XF 498 CNS, in the assay on DMS 273 small cell lung, in the assay with LXFL 529 NSCLC, in the assay with DMS 114 small cell lung, in the assay with SNB-78 CNS and with DLD-1 colon was greater than 100 µM each time.
Consider `C[N+](C)(C)CC1CCC(C[N+](C)(C)C)C1=O` (configuration not stated), for which the TGI in the assay on MDA-MB-231 breast was 41.3 µM; with DU-145 prostate, 30.5 µM; in the assay with XF 498 CNS, 3.74 µM; with DMS 273 small cell lung, 6.37 µM; in the assay on LXFL 529 NSCLC, 1.57 µM; in the assay with DMS 114 small cell lung it was 6.74 µM. For the same molecule, the TGI in the assay with BT-549 breast was 30.7 µM; in the assay with M19-MEL melanoma it was 3.83 µM; in the assay on SNB-78 CNS, 5.26 µM; in the assay with DLD-1 colon it was greater than 100 µM; with MDA-MB-435, 30.7 µM.
For `O=[P+](O)c1ccccn1`, the TGI in the assay on XF 498 CNS, in the assay with DMS 273 small cell lung, in the assay with LXFL 529 NSCLC, in the assay with DMS 114 small cell lung, with M19-MEL melanoma and in the assay with SNB-78 CNS was greater than 100 µM each time. The molecule also came in with a TGI in the assay with DLD-1 colon greater than 100 µM.
For the molecule `O=C(Cc1nc2sc3c(c2c(=O)[nH]1)CCCC3)Nc1ccccc1`, the TGI in the assay with XF 498 CNS, with DMS 273 small cell lung, in the assay on LXFL 529 NSCLC, in the assay with DMS 114 small cell lung and in the assay on M19-MEL melanoma was greater than 100 µM throughout.
`CC(C)(C)OP(=O)(OC(C)(C)C)C(O)c1ccc(/C=C(\C#N)C(N)=O)cc1` (configuration not stated): the TGI with XF 498 CNS, in the assay on DMS 273 small cell lung, in the assay on LXFL 529 NSCLC, in the assay with DMS 114 small cell lung, in the assay on M19-MEL melanoma and in the assay with SNB-78 CNS was greater than 100 µM throughout. For the same molecule, the TGI in the assay on DLD-1 colon was greater than 100 µM.
As for `O=C1CC(c2c(-c3ccccc3)[nH]c3ccccc23)C(=O)N1c1ccccc1` (configuration not stated), the TGI with XF 498 CNS, with DMS 273 small cell lung, in the assay with LXFL 529 NSCLC, with DMS 114 small cell lung, in the assay with M19-MEL melanoma and in the assay with SNB-78 CNS was greater than 100 µM each time. This molecule showed a TGI with DLD-1 colon greater than 100 µM.
As for `CC[C@@]1(OC(=O)C(N)CCCCN)C(=O)OCc2c1cc1n(c2=O)Cc2cc3ccccc3nc2-1` (some centres not stated), the TGI with MDA-MB-231 breast is greater than 100 µM; with DU-145 prostate, 0.25 µM; in the assay on XF 498 CNS it was 1.78 µM; in the assay with DMS 273 small cell lung it was 0.366 µM; with LXFL 529 NSCLC, 4.34 µM; in the assay with DMS 114 small cell lung, 0.263 µM. Further, the TGI in the assay with BT-549 breast was 10.9 µM; in the assay with M19-MEL melanoma, 0.509 µM; in the assay on SNB-78 CNS, greater than 100 µM; with DLD-1 colon it was greater than 27.1 µM; in the assay on MDA-MB-435 it was 1.26 µM.
For `COC(=O)CCC(=O)N1C/C(=C\c2ccccc2)C(=O)/C(=C/c2ccccc2)C1`, the total growth inhibition concentration (TGI) in the assay on XF 498 CNS worked out at 19.2 µM; with DMS 273 small cell lung, 2.73 µM; in the assay on LXFL 529 NSCLC, 4.13 µM; in the assay on DMS 114 small cell lung it was 3.56 µM; in the assay on M19-MEL melanoma, 11.7 µM; in the assay on SNB-78 CNS, 7.83 µM. Besides, the TGI in the assay with DLD-1 colon was found to be 10.9 µM.
Take `N#COc1ccc(Oc2ccccc2)cc1`: the TGI in the assay on XF 498 CNS was greater than 100 µM; with DMS 273 small cell lung it was 50.4 µM; with LXFL 529 NSCLC, greater than 100 µM; in the assay with DMS 114 small cell lung, 89.6 µM; in the assay with M19-MEL melanoma, greater than 100 µM; in the assay with SNB-78 CNS it was greater than 100 µM. Also, the TGI in the assay on DLD-1 colon was greater than 100 µM.
As for `C1OC1CN1CCN(CC2CO2)CC1` (configuration not stated), the TGI in the assay with XF 498 CNS, in the assay on DMS 273 small cell lung, in the assay with LXFL 529 NSCLC, with DMS 114 small cell lung, with M19-MEL melanoma and in the assay with SNB-78 CNS was greater than 100 µM each time. Besides, the TGI with DLD-1 colon was greater than 100 µM.
`O=C(O)[C@@H]1OCCOCCO[C@@H](C(=O)O)[C@H](C(=O)O)OCCOCCO[C@H]1C(=O)O`: the TGI is greater than 100 µM in the assay on XF 498 CNS; greater than 100 µM with DMS 273 small cell lung; greater than 100 µM in the assay with LXFL 529 NSCLC; greater than 92.3 µM in the assay on DMS 114 small cell lung; greater than 100 µM in the assay with M19-MEL melanoma; greater than 100 µM in the assay on SNB-78 CNS. The TGI in the assay on DLD-1 colon was greater than 61.8 µM.
For the molecule `N#Cc1ccc(/C=C(/C(=O)c2ccccc2)c2ccccc2)cc1`, the TGI in the assay on XF 498 CNS amounted to 16.4 µM; in the assay with DMS 273 small cell lung, 26.2 µM; with LXFL 529 NSCLC, 20.4 µM; in the assay with DMS 114 small cell lung it was 31.5 µM; with M19-MEL melanoma, 31.8 µM; in the assay on SNB-78 CNS it was 14.3 µM. In the assay on DLD-1 colon, this molecule registered a TGI of 13 µM.
